In the NIST ThermoML archive (doi:10.1021/je100610v):
± gives the expanded uncertainty stated by the source.

Assay: xn = mol fraction of the nth substance listed
Details: 101 kPa, Liquid; for speed of sound: Pulse-echo method

ClCCCCCCCl [1,6-dichlorohexane] + CCCCCCC
speed of sound (292.49 K, x1 = 0.3004): 1199.1 ± 1.1 m/s | speed of sound (292.56 K, x1 = 0.6998): 1276.9 ± 1.6 m/s | speed of sound (292.79 K, x1 = 0.4999): 1235 ± 1.3 m/s | speed of sound (292.8 K, x1 = 0.8001): 1297 ± 1.8 m/s | speed of sound (292.8 K, x1 = 0.8957): 1316.3 ± 2 m/s | speed of sound (292.81 K, x1 = 0.1999): 1181.6 ± 0.93 m/s | speed of sound (292.81 K, x1 = 0.6004): 1255 ± 1.5 m/s | speed of sound (292.91 K, x1 = 0.4): 1215.3 ± 1.2 m/s | speed of sound (292.92 K, x1 = 0.1014): 1167.6 ± 0.83 m/s | speed of sound (293.01 K, x1 = 1): 1337.8 ± 2.1 m/s | mass density (293.15 K, x1 = 0.0998): 722.22 ± 0.86 kg/m3 | mass density (293.15 K, x1 = 0.1999): 760.97 ± 0.79 kg/m3 | mass density (293.15 K, x1 = 0.2998): 799.74 ± 0.73 kg/m3 | mass density (293.15 K, x1 = 0.4001): 838.66 ± 0.69 kg/m3 | mass density (293.15 K, x1 = 0.5001): 877.38 ± 0.66 kg/m3 | mass density (293.15 K, x1 = 0.6002): 916.12 ± 0.66 kg/m3 | mass density (293.15 K, x1 = 0.7): 954.46 ± 0.69 kg/m3 | mass density (293.15 K, x1 = 0.8002): 992.78 ± 0.74 kg/m3 | mass density (293.15 K, x1 = 0.9001): 1030.7 ± 0.97 kg/m3 | mass density (293.15 K, x1 = 1): 1068.33 ± 1.3 kg/m3 | mass density (298.15 K, x1 = 0.0998): 717.96 ± 0.87 kg/m3 | mass density (298.15 K, x1 = 0.1999): 756.72 ± 0.8 kg/m3 | mass density (298.15 K, x1 = 0.2998): 795.42 ± 0.74 kg/m3 | mass density (298.15 K, x1 = 0.4001): 834.33 ± 0.7 kg/m3 | mass density (298.15 K, x1 = 0.5001): 873.04 ± 0.67 kg/m3 | mass density (298.15 K, x1 = 0.6002): 911.75 ± 0.67 kg/m3 | mass density (298.15 K, x1 = 0.7): 950.12 ± 0.69 kg/m3 | mass density (298.15 K, x1 = 0.8002): 988.4 ± 0.74 kg/m3 | mass density (298.15 K, x1 = 0.9001): 1026.11 ± 0.95 kg/m3 | mass density (298.15 K, x1 = 1): 1063.61 ± 1.2 kg/m3 | speed of sound (298.16 K, x1 = 0.6998): 1256.2 ± 1.6 m/s | speed of sound (298.16 K, x1 = 0.8957): 1297.1 ± 2 m/s | speed of sound (298.17 K, x1 = 0.3004): 1176.1 ± 1 m/s | speed of sound (298.17 K, x1 = 0.4999): 1214.5 ± 1.3 m/s | speed of sound (298.18 K, x1 = 1): 1319.7 ± 2.1 m/s | speed of sound (298.2 K, x1 = 0.4): 1195 ± 1.2 m/s | speed of sound (298.2 K, x1 = 0.8001): 1277.5 ± 1.8 m/s | speed of sound (298.21 K, x1 = 0.1014): 1145.5 ± 0.82 m/s | speed of sound (298.21 K, x1 = 0.1999): 1159.4 ± 0.92 m/s | speed of sound (298.21 K, x1 = 0.6004): 1235.2 ± 1.5 m/s | speed of sound (303.14 K, x1 = 0.4999): 1195.5 ± 1.3 m/s | speed of sound (303.14 K, x1 = 0.6998): 1237.9 ± 1.6 m/s | speed of sound (303.14 K, x1 = 0.8957): 1279.5 ± 2 m/s | speed of sound (303.15 K, x1 = 0.3004): 1156.1 ± 1 m/s | speed of sound (303.15 K, x1 = 1): 1302.4 ± 2.1 m/s | mass density (303.15 K, x1 = 0.0998): 713.61 ± 0.88 kg/m3 | mass density (303.15 K, x1 = 0.1999): 752.3 ± 0.81 kg/m3 | mass density (303.15 K, x1 = 0.2998): 791 ± 0.75 kg/m3 | mass density (303.15 K, x1 = 0.4001): 830 ± 0.71 kg/m3 | mass density (303.15 K, x1 = 0.5001): 868.59 ± 0.68 kg/m3 | mass density (303.15 K, x1 = 0.6002): 907.23 ± 0.68 kg/m3 | mass density (303.15 K, x1 = 0.7): 945.63 ± 0.7 kg/m3 | mass density (303.15 K, x1 = 0.8002): 983.71 ± 0.75 kg/m3 | mass density (303.15 K, x1 = 0.9001): 1021.49 ± 0.93 kg/m3 | mass density (303.15 K, x1 = 1): 1058.87 ± 1.2 kg/m3 | speed of sound (303.19 K, x1 = 0.4): 1175.5 ± 1.2 m/s | speed of sound (303.19 K, x1 = 0.8001): 1259.6 ± 1.8 m/s | speed of sound (303.2 K, x1 = 0.1014): 1124.7 ± 0.82 m/s | speed of sound (303.2 K, x1 = 0.1999): 1138.9 ± 0.91 m/s | speed of sound (303.2 K, x1 = 0.6004): 1216.8 ± 1.5 m/s | speed of sound (308.12 K, x1 = 0.6998): 1219.8 ± 1.6 m/s | speed of sound (308.12 K, x1 = 0.8957): 1261.9 ± 2 m/s | speed of sound (308.13 K, x1 = 0.3004): 1136.2 ± 1 m/s | speed of sound (308.13 K, x1 = 0.4999): 1176.5 ± 1.3 m/s | speed of sound (308.14 K, x1 = 1): 1285 ± 2.1 m/s | mass density (308.15 K, x1 = 0.0998): 709.34 ± 0.89 kg/m3 | mass density (308.15 K, x1 = 0.1999): 748.07 ± 0.82 kg/m3 | mass density (308.15 K, x1 = 0.2998): 786.58 ± 0.76 kg/m3 | mass density (308.15 K, x1 = 0.4001): 825.61 ± 0.71 kg/m3 | mass density (308.15 K, x1 = 0.5001): 864.37 ± 0.69 kg/m3 | mass density (308.15 K, x1 = 0.6002): 902.95 ± 0.68 kg/m3 | mass density (308.15 K, x1 = 0.7): 941.1 ± 0.71 kg/m3 | mass density (308.15 K, x1 = 0.8002): 979.09 ± 0.76 kg/m3 | mass density (308.15 K, x1 = 0.9001): 1016.82 ± 0.92 kg/m3 | mass density (308.15 K, x1 = 1): 1054.14 ± 1.2 kg/m3 | speed of sound (308.17 K, x1 = 0.4): 1156.1 ± 1.2 m/s | speed of sound (308.18 K, x1 = 0.1014): 1104 ± 0.81 m/s | speed of sound (308.18 K, x1 = 0.6004): 1198.3 ± 1.5 m/s | speed of sound (308.18 K, x1 = 0.8001): 1241.7 ± 1.8 m/s | speed of sound (308.19 K, x1 = 0.1999): 1118.6 ± 0.91 m/s | mass density (313.15 K, x1 = 0.0998): 704.96 ± 0.9 kg/m3 | mass density (313.15 K, x1 = 0.1999): 743.68 ± 0.83 kg/m3 | mass density (313.15 K, x1 = 0.2998): 782.17 ± 0.77 kg/m3 | mass density (313.15 K, x1 = 0.4001): 821.26 ± 0.72 kg/m3 | mass density (313.15 K, x1 = 0.5001): 859.93 ± 0.7 kg/m3 | mass density (313.15 K, x1 = 0.6002): 898.61 ± 0.69 kg/m3 | mass density (313.15 K, x1 = 0.7): 936.7 ± 0.71 kg/m3 | mass density (313.15 K, x1 = 0.8002): 974.58 ± 0.76 kg/m3 | mass density (313.15 K, x1 = 0.9001): 1012.12 ± 0.9 kg/m3 | mass density (313.15 K, x1 = 1): 1049.39 ± 1.2 kg/m3 | speed of sound (313.21 K, x1 = 0.3004): 1116.2 ± 1 m/s | speed of sound (313.21 K, x1 = 0.6998): 1201.4 ± 1.6 m/s | speed of sound (313.21 K, x1 = 0.8957): 1244 ± 1.9 m/s | speed of sound (313.22 K, x1 = 0.4999): 1157.3 ± 1.3 m/s | speed of sound (313.23 K, x1 = 1): 1267.4 ± 2.1 m/s | speed of sound (313.25 K, x1 = 0.1014): 1082.9 ± 0.81 m/s | speed of sound (313.26 K, x1 = 0.4): 1136.5 ± 1.2 m/s | speed of sound (313.26 K, x1 = 0.8001): 1223.6 ± 1.8 m/s | speed of sound (313.28 K, x1 = 0.1999): 1098 ± 0.9 m/s | speed of sound (313.28 K, x1 = 0.6004): 1179.5 ± 1.5 m/s
